According to the supplement of paper PMC10307832:

Experiments:
Assay in all cases: relative viability (nuclei count vs DMSO), 5 days (fraction); higher = more cells survive
[1] = compound: CNC(=O)c1cc(Oc2ccc(NC(=O)Nc3ccc(Cl)c(C(F)(F)F)c3)cc2)ccn1 [Sorafenib] + C[C@]1(O)C[C@@H](c2nc(-c3ccc4ccc(-c5ccccc5)nc4c3)c3c(N)nccn32)C1 [Linsitinib] (partner 1 µM)
Summary of the method: (§1)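 Lung cancer cell lines were pin-tool dosed in 1536-well plates on the day after seeding, with either a lone drug or a fixed anchor-drug dose plus five library-drug doses (not always all listed) in √10 steps. Nuclei were counted on 4× images after 5 days. Relative viability is the ratio of treated-well to vehicle-well nuclei counts, with each value a median of duplicate plates.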

[2] = compound: CNC(=O)c1cc(Oc2ccc(NC(=O)Nc3ccc(Cl)c(C(F)(F)F)c3)cc2)ccn1 [Sorafenib] + Nc1nc2[nH]cc(CCc3ccc(C(=O)N[C@@H](CCC(=O)O)C(=O)O)cc3)c2c(=O)[nH]1 [Pemetrexed] (partner 0.2 µM)
Summary of the method: as §1

[3] = compound: CNC(=O)c1cc(Oc2ccc(NC(=O)Nc3ccc(Cl)c(C(F)(F)F)c3)cc2)ccn1 [Sorafenib] + C[C@@H](Oc1cc(-c2cnn(C3CCNCC3)c2)cnc1N)c1c(Cl)ccc(F)c1Cl [Crizotinib] (partner 1 µM)
Summary of the method: as §1

[4] = compound: CNC(=O)c1cc(Oc2ccc(NC(=O)Nc3ccc(Cl)c(C(F)(F)F)c3)cc2)ccn1 [Sorafenib] + CC(=O)c1c(C)c2cnc(Nc3ccc(N4CCNCC4)cn3)nc2n(C2CCCC2)c1=O [Palbociclib] (partner 0.5 µM)
Summary of the method: as §1

[5] = compound: CNC(=O)c1cc(Oc2ccc(NC(=O)Nc3ccc(Cl)c(C(F)(F)F)c3)cc2)ccn1 [Sorafenib] + NC(=O)Nc1cc(-c2cccc(F)c2)sc1C(=O)N[C@H]1CCCNC1 [AZD7762] (partner 0.2 µM)
Summary of the method: as §1

NCI-H460
relative viability ([1]; first compound 0.08 µM): 0.838
relative viability ([1]; first compound 0.253 µM): 0.771
relative viability ([1]; first compound 2.53 µM): 0.684
relative viability ([1]; first compound 8 µM): 0.215
relative viability ([2]; first compound 0.08 µM): 0.0604
relative viability ([2]; first compound 0.253 µM): 0.0653
relative viability ([2]; first compound 2.53 µM): 0.0731
relative viability ([2]; first compound 8 µM): 0.0582
relative viability ([3]; first compound 0.08 µM): 1.02
relative viability ([3]; first compound 0.253 µM): 0.777
relative viability ([3]; first compound 2.53 µM): 0.918
relative viability ([3]; first compound 8 µM): 0.502
relative viability ([4]; first compound 0.08 µM): 0.176
relative viability ([4]; first compound 0.253 µM): 0.118
relative viability ([4]; first compound 2.53 µM): 0.136
relative viability ([4]; first compound 8 µM): 0.137
relative viability ([5]; first compound 0.08 µM): 0.586
relative viability ([5]; first compound 0.253 µM): 0.444
relative viability ([5]; first compound 8 µM): 0.414

NCI-H647
relative viability ([1]; first compound 0.08 µM): 1.16
relative viability ([1]; first compound 0.253 µM): 0.992
relative viability ([1]; first compound 2.53 µM): 0.976
relative viability ([1]; first compound 8 µM): 0.243
relative viability ([2]; first compound 0.08 µM): 0.171
relative viability ([2]; first compound 0.253 µM): 0.141
relative viability ([2]; first compound 2.53 µM): 0.126
relative viability ([2]; first compound 8 µM): 0.0896
relative viability ([3]; first compound 0.08 µM): 1.05
relative viability ([3]; first compound 0.253 µM): 0.972
relative viability ([3]; first compound 2.53 µM): 0.867
relative viability ([3]; first compound 8 µM): 0.395
relative viability ([4]; first compound 0.08 µM): 0.373
relative viability ([4]; first compound 0.253 µM): 0.316
relative viability ([4]; first compound 2.53 µM): 0.284
relative viability ([4]; first compound 8 µM): 0.082
relative viability ([5]; first compound 0.08 µM): 0.415
relative viability ([5]; first compound 0.253 µM): 0.298
relative viability ([5]; first compound 2.53 µM): 0.64
relative viability ([5]; first compound 8 µM): 0.35

NCI-H650
relative viability ([1]; first compound 0.08 µM): 0.81
relative viability ([1]; first compound 0.253 µM): 0.664
relative viability ([1]; first compound 2.53 µM): 0.776
relative viability ([1]; first compound 8 µM): 0.716
relative viability ([2]; first compound 0.08 µM): 0.928
relative viability ([2]; first compound 0.253 µM): 0.799
relative viability ([2]; first compound 2.53 µM): 0.904
relative viability ([2]; first compound 8 µM): 0.795
relative viability ([3]; first compound 0.08 µM): 0.777
relative viability ([3]; first compound 0.253 µM): 0.563
relative viability ([3]; first compound 2.53 µM): 0.735
relative viability ([3]; first compound 8 µM): 0.595
relative viability ([4]; first compound 0.08 µM): 0.435
relative viability ([4]; first compound 0.253 µM): 0.303
relative viability ([4]; first compound 2.53 µM): 0.268
relative viability ([4]; first compound 8 µM): 0.355
relative viability ([5]; first compound 0.08 µM): 1.31
relative viability ([5]; first compound 0.253 µM): 0.691
relative viability ([5]; first compound 2.53 µM): 0.96
relative viability ([5]; first compound 8 µM): 0.936

NCI-H838
relative viability ([1]; first compound 0.08 µM): 1.1
relative viability ([1]; first compound 2.53 µM): 1.24
relative viability ([1]; first compound 8 µM): 0.485
relative viability ([2]; first compound 0.08 µM): 0.277
relative viability ([2]; first compound 0.253 µM): 0.244
relative viability ([2]; first compound 2.53 µM): 0.252
relative viability ([2]; first compound 8 µM): 0.16
relative viability ([3]; first compound 0.08 µM): 0.931
relative viability ([3]; first compound 0.253 µM): 0.946
relative viability ([3]; first compound 2.53 µM): 0.991
relative viability ([3]; first compound 8 µM): 0.903
relative viability ([4]; first compound 0.08 µM): 0.25
relative viability ([4]; first compound 0.253 µM): 0.223
relative viability ([4]; first compound 2.53 µM): 0.286
relative viability ([4]; first compound 8 µM): 0.158
relative viability ([5]; first compound 0.08 µM): 0.971
relative viability ([5]; first compound 0.253 µM): 0.93
relative viability ([5]; first compound 8 µM): 0.923

NCI-H1355
relative viability ([1]; first compound 0.08 µM): 0.925
relative viability ([1]; first compound 0.253 µM): 0.823
relative viability ([1]; first compound 2.53 µM): 0.785
relative viability ([1]; first compound 8 µM): 0.781
relative viability ([2]; first compound 0.08 µM): 1.04
relative viability ([2]; first compound 0.253 µM): 0.953
relative viability ([2]; first compound 2.53 µM): 1.02
relative viability ([2]; first compound 8 µM): 0.963
relative viability ([3]; first compound 0.08 µM): 1.16
relative viability ([3]; first compound 0.253 µM): 1.04
relative viability ([3]; first compound 2.53 µM): 1.04
relative viability ([3]; first compound 8 µM): 1.11
relative viability ([4]; first compound 0.08 µM): 0.421
relative viability ([4]; first compound 0.253 µM): 0.41
relative viability ([4]; first compound 2.53 µM): 0.431
relative viability ([4]; first compound 8 µM): 0.39
relative viability ([5]; first compound 0.08 µM): 0.805
relative viability ([5]; first compound 0.253 µM): 0.713
relative viability ([5]; first compound 2.53 µM): 0.651
relative viability ([5]; first compound 8 µM): 0.546

NCI-H1437
relative viability ([1]; first compound 0.08 µM): 0.989
relative viability ([1]; first compound 0.253 µM): 1
relative viability ([1]; first compound 2.53 µM): 0.657
relative viability ([1]; first compound 8 µM): 0.244
relative viability ([2]; first compound 0.08 µM): 0.335
relative viability ([2]; first compound 0.253 µM): 0.312
relative viability ([2]; first compound 2.53 µM): 0.268
relative viability ([2]; first compound 8 µM): 0.184
relative viability ([3]; first compound 0.08 µM): 0.941
relative viability ([3]; first compound 0.253 µM): 0.827
relative viability ([3]; first compound 2.53 µM): 0.844
relative viability ([3]; first compound 8 µM): 0.496
relative viability ([4]; first compound 0.08 µM): 0.324
relative viability ([4]; first compound 0.253 µM): 0.256
relative viability ([4]; first compound 2.53 µM): 0.304
relative viability ([4]; first compound 8 µM): 0.246
relative viability ([5]; first compound 0.08 µM): 1.23
relative viability ([5]; first compound 0.253 µM): 1.05
relative viability ([5]; first compound 2.53 µM): 1.13
relative viability ([5]; first compound 8 µM): 0.539

NCI-H1651
relative viability ([1]; first compound 0.08 µM): 1.14
relative viability ([1]; first compound 0.253 µM): 0.885
relative viability ([1]; first compound 2.53 µM): 0.91
relative viability ([1]; first compound 8 µM): 0.396
relative viability ([2]; first compound 0.08 µM): 0.575
relative viability ([2]; first compound 0.253 µM): 0.601
relative viability ([2]; first compound 2.53 µM): 0.611
relative viability ([2]; first compound 8 µM): 0.511
relative viability ([3]; first compound 0.08 µM): 0.863
relative viability ([3]; first compound 0.253 µM): 0.866
relative viability ([3]; first compound 2.53 µM): 0.845
relative viability ([3]; first compound 8 µM): 0.877
relative viability ([4]; first compound 0.08 µM): 0.556
relative viability ([4]; first compound 0.253 µM): 0.52
relative viability ([4]; first compound 2.53 µM): 0.533
relative viability ([4]; first compound 8 µM): 0.516
relative viability ([5]; first compound 0.08 µM): 0.537
relative viability ([5]; first compound 0.253 µM): 0.362
relative viability ([5]; first compound 2.53 µM): 0.399
relative viability ([5]; first compound 8 µM): 0.322

NCI-H1666
relative viability ([1]; first compound 0.08 µM): 0.927
relative viability ([1]; first compound 0.253 µM): 0.82
relative viability ([1]; first compound 2.53 µM): 0.656
relative viability ([1]; first compound 8 µM): 0.611
relative viability ([2]; first compound 0.08 µM): 0.916
relative viability ([2]; first compound 0.253 µM): 0.856
relative viability ([2]; first compound 8 µM): 0.62
relative viability ([3]; first compound 0.08 µM): 1.01
relative viability ([3]; first compound 0.253 µM): 0.899
relative viability ([3]; first compound 8 µM): 0.487
relative viability ([4]; first compound 0.08 µM): 0.602
relative viability ([4]; first compound 0.253 µM): 0.566
relative viability ([4]; first compound 2.53 µM): 0.634
relative viability ([4]; first compound 8 µM): 0.717
relative viability ([5]; first compound 0.08 µM): 0.865
relative viability ([5]; first compound 0.253 µM): 0.778
relative viability ([5]; first compound 2.53 µM): 0.797
relative viability ([5]; first compound 8 µM): 0.719
